The source made the active and inactive calls. The rule behind the calls is not given here.
Assays:
[1] = system: H9c2; assay: Protection against LPS/hypoxia induced apoptosis in rat H9c2 cells assessed as reduction in green fluorescence in presence of 2-(4-(5-oxo-5-((5-sulfamoyl-1,3,4-thiadiazol-2-yl)amino)pentyl)-1H-1,2,3-triazol-1-yl)acetic acid by confocal microscopy analysis; type: functional, cell-based
[2] = system: H9c2; assay: Reversal of ATP level in LPS/hypoxia induced rat H9c2 cells in presence of 2-(4-(5-oxo-5-((5-sulfamoyl-1,3,4-thiadiazol-2-yl)amino)pentyl)-1H-1,2,3-triazol-1-yl)acetic acid by multimode plate reader analysis (reference value: 21.37 nmol/mg); type: functional
[3] = system: H9c2; assay: Reversal of LPS/hypoxia induced mitochondrial membrane potential loss in rat H9c2 cells in presence of 2-(4-(5-oxo-5-((5-sulfamoyl-1,3,4-thiadiazol-2-yl)amino)pentyl)-1H-1,2,3-triazol-1-yl)acetic acid by JC-1 dye based flow cytometry analysis; type: functional, cell-based
[4] = system: H9c2; assay: Protection against LPS/hypoxia induced cell injury in rat H9c2 cells assessed as recovery of cell viability in presence of 2-(4-(5-oxo-5-((5-sulfamoyl-1,3,4-thiadiazol-2-yl)amino)pentyl)-1H-1,2,3-triazol-1-yl)acetic acid and Na2WO4 by CCK-8 assay; type: functional, cell-based
[5] = system: Rattus norvegicus; assay: Antiinflammatory activity in LPS/talc powder induced pericarditic Wistar rat model assessed as increase in CK-MB level in serum at 20 mg/kg, ip pretreated for 2 hrs followed by LPS/tal powder stimulation measured after 48 hrs in presence of 2-(4-(5-oxo-5-((5-sulfamoyl-1,3,4-thiadiazol-2-yl)amino)pentyl)-1H-1,2,3-triazol-1-yl)acetic acid (reference value: 4140+/-256.23 U/L); type: functional; conditions: time 50 hrs
[6] = system: H9c2; assay: Protection against LPS/ hypoxia induced cell injury in rat H9c2 cells assessed as recovery of cell viability at 1 to 10 uM by CCK-8 assay; type: functional, cell-based; conditions: dose 1-10 µM
[7] = system: H9c2; assay: Anti-inflammatory activity in LPS/hypoxia induced rat H9c2 cells assessed as reduction of IL-1 beta protein expression at 10 uM by Western blot analysis; type: functional, cell-based
[8] = Stability of the compound assessed as NTR (unknown origin) mediated hydrolysis by measuring half life by UV spectrophotometry; type: ADME; conditions: human
[9] = system: H9c2; assay: Protection against LPS/hypoxia induced apoptosis in rat H9c2 cells assessed as reduction in necrotic cells at 10 umol/L incubated for 4 hrs under hypoxia condition in presence of 2-(4-(5-oxo-5-((5-sulfamoyl-1,3,4-thiadiazol-2-yl)amino)pentyl)-1H-1,2,3-triazol-1-yl)acetic acid by AnnexinV-FITC/propidium iodide staining based flow cytometry analysis (reference value: 31.02%); type: functional; set-up: scale not given: the % may be the effect or the level left; conditions: dose 10 µmol/L, at 10 µM
[10] = system: H9c2; assay: Inhibition of intracellular ROS level in LPS/hypoxia induced rat H9c2 cells in presence of 2-(4-(5-oxo-5-((5-sulfamoyl-1,3,4-thiadiazol-2-yl)amino)pentyl)-1H-1,2,3-triazol-1-yl)acetic acid by DCFH-DA probe based fluorescence confocal microscopy analysis; type: functional, cell-based
[11] = Toxicity in Wistar rat assessed as change in ALT level in presence of 2-(4-(5-oxo-5-((5-sulfamoyl-1,3,4-thiadiazol-2-yl)amino)pentyl)-1H-1,2,3-triazol-1-yl)acetic acid; conditions: in vivo
[12] = system: H9c2; assay: Inhibition of intracellular ROS level in LPS/hypoxia induced rat H9c2 cells in presence of 2-(4-(5-oxo-5-((5-sulfamoyl-1,3,4-thiadiazol-2-yl)amino)pentyl)-1H-1,2,3-triazol-1-yl)acetic acid and Na2WO4 by DCFH-DA probe based fluorescence confocal microscopy analysis; type: functional, cell-based
[13] = system: H9c2; assay: Anti-inflammatory activity in LPS/hypoxia induced rat H9c2 cells assessed as reduction of IL-6 protein expression at 10 uM in presence of 2-(4-(5-oxo-5-((5-sulfamoyl-1,3,4-thiadiazol-2-yl)amino)pentyl)-1H-1,2,3-triazol-1-yl)acetic acid by Western blot analysis; type: functional, cell-based
[14] = Toxicity in Wistar rat assessed as change in CRE level in presence of 2-(4-(5-oxo-5-((5-sulfamoyl-1,3,4-thiadiazol-2-yl)amino)pentyl)-1H-1,2,3-triazol-1-yl)acetic acid; conditions: in vivo
[15] = system: H9c2; assay: Protection against LPS/hypoxia induced cell injury in CA9 knockdown rat H9c2 cells assessed as recovery of cell viability at 10 uM by CCK-8 assay; type: functional, cell-based
[16] = system: H9c2; assay: Anti-inflammatory activity in rat H9c2 cells assessed as downregulation of cytochrome C expression at 10 uM in presence of 2-(4-(5-oxo-5-((5-sulfamoyl-1,3,4-thiadiazol-2-yl)amino)pentyl)-1H-1,2,3-triazol-1-yl)acetic acid by Western blot analysis; type: functional, cell-based
[17] = system: Rattus norvegicus; assay: Antiinflammatory activity against LPS/talc powder induced pericarditic Wistar rat assessed as reduction in U wave flattening at 20 mg/kg, ip pretreated for 2 hrs followed by LPS/tal powder stimulation measured after 48 hrs in presence of 2-(4-(5-oxo-5-((5-sulfamoyl-1,3,4-thiadiazol-2-yl)amino)pentyl)-1H-1,2,3-triazol-1-yl)acetic acid by ECG analysis; type: functional, organism-based; conditions: time 50.0 hrs
[18] = system: H9c2; assay: Protection against LPS/hypoxia induced apoptosis in rat H9c2 cells assessed as reduction in red fluorescence in presence of 2-(4-(5-oxo-5-((5-sulfamoyl-1,3,4-thiadiazol-2-yl)amino)pentyl)-1H-1,2,3-triazol-1-yl)acetic acid by confocal microscopy analysis; type: functional, cell-based
[19] = system: H9c2; assay: Reversal of LPS/hypoxia induced mitochondrial membrane potential loss in rat H9c2 cells assessed as increase in JC-1 polymer morphology in presence of 2-(4-(5-oxo-5-((5-sulfamoyl-1,3,4-thiadiazol-2-yl)amino)pentyl)-1H-1,2,3-triazol-1-yl)acetic acid by JC-1 dye based flow cytometry analysis; type: functional, cell-based; conditions: time 20.0 min
[20] = system: Rattus norvegicus; assay: Antiinflammatory activity against LPS/talc powder induced pericarditic Wistar rat assessed as reduction in heart swelling at 20 mg/kg, ip pretreated for 2 hrs followed by LPS/tal powder stimulation measured after 48 hrs in presence of 2-(4-(5-oxo-5-((5-sulfamoyl-1,3,4-thiadiazol-2-yl)amino)pentyl)-1H-1,2,3-triazol-1-yl)acetic acid; type: functional, organism-based; conditions: time 50.0 hrs
[21] = system: H9c2; assay: Anti-inflammatory activity in rat H9c2 cells assessed as downregulation of cytochrome C expression at 10 uM by Western blot analysis; type: functional, cell-based
[22] = system: H9c2; assay: Antiinflammatory activity in LPS/hypoxia induced CA9 knockdown rat H9c2 cells assessed as decrease in IL-6 protein level at 10 uM by Western blot analysis; type: functional, cell-based
[23] = system: H9c2; assay: Protection against LPS/hypoxia induced apoptosis in rat H9c2 cells assessed as reduction in red fluorescence by confocal microscopy analysis; type: functional, cell-based
[24] = system: H9c2; assay: Anti-inflammatory activity in LPS/hypoxia induced rat H9c2 cells assessed as reduction of TNF-alpha protein expression at 10 uM in presence of 2-(4-(5-oxo-5-((5-sulfamoyl-1,3,4-thiadiazol-2-yl)amino)pentyl)-1H-1,2,3-triazol-1-yl)acetic acid by Western blot analysis; type: functional, cell-based
[25] = system: H9c2; assay: Antiinflammatory activity in LPS/hypoxia induced CA9 knockdown rat H9c2 cells assessed as decrease in IL-1 beta protein level at 10 uM by Western blot analysis; type: functional, cell-based
[26] = system: H9c2; assay: Protection against LPS/hypoxia induced cell injury in rat H9c2 cells assessed as recovery of cell viability in presence of 2-(4-(5-oxo-5-((5-sulfamoyl-1,3,4-thiadiazol-2-yl)amino)pentyl)-1H-1,2,3-triazol-1-yl)acetic acid by CCK-8 assay (reference value: 69.0%); type: functional

Structure (SMILES): COc1ccc2c(c1)c(CC(=O)O)c(C)n2C(=O)c1ccc(Cl)cc1 [INDOMETHACIN]
- Activity [1]: Active
- Activity [2]: 47.52 nmol/mg
- Activity [3]: Active
- Activity [4]: Active
- Activity [5]: 2620 U/L
- Activity [6]: Active
- Activity [7]: Active
- t1/2 [8]: 21.6 min
- Activity [9]: 9.61%
- inhibition [10]: Active
- Activity [11]: Toxic
- inhibition [12]: Active
- Activity [13]: Active
- Activity [14]: Toxic
- Activity [15]: Active
- Activity [16]: Active
- Activity [17]: Active
- Activity [18]: Active
- Activity [19]: Active
- Activity [20]: Active
- Activity [21]: Active
- Activity [22]: Active
- Activity [23]: Active
- Activity [24]: Active
- Activity [25]: Active
- Activity [26]: 91.8%

Reference: ChEMBL document CHEMBL5104193, “Hypoxia-Activated Prodrugs with Dual COX-2/CA Inhibitory Effects on Attenuating Cardiac Inflammation under Hypoxia” (J Med Chem, 2022)
